pIC50: −log10 of the molar value. Where two headings read alike, the source gives them in different places.
Key:
HB-EGF mRNA = HB-EGF mRNA in human skin organ culture (Northern blotting); assay type: cell-based; conditions: 3 μM RA, 8 hours
Source text: Immediately upon biopsy, the tissue was immersed in culture medium consisting of Keratinocyte Basal Medium (KBM) (Clonetics, Inc., Walkersville, Md.). KBM is a low-Ca^2+, serum-free modification of MCDB-153 medium optimized for high-density keratinocyte growth (Wille J, Jr., Pittelkow M R, Shipley G D, Scott R E. Integrated control of growth and differentiation of normal human prokeratinocytes cultured in serum-free medium: clonal analyses, growth kinetics, and cell cycle studies. J Cell Physiol 1984;121:31-44). It was supplemented with CaCl2 to bring the final Ca^2+ concentration to 1.4 mM. After transport to the laboratory on ice, the biopsies were incubated in a 96-well dish containing 200 μL of Ca^2+-supplemented KBM with or without additional treatments. Cultures were incubated at 37° C. in an atmosphere of 95% air and 5% CO2. Incubation was for 8 days, with change of medium containing the various treatments every 2 days. […]

human dermal fibroblasts = assay: RA-induced survival of dermal fibroblasts in low-Ca2+ monolayer culture; assay type: cell-based; conditions: 3 μM RA, 48 hours, KBM 0.15 mM CaCl2
Experimental: Normal human epidermal keratinocytes were obtained from skin biopsies and maintained in monolayer culture using Keratinocyte Growth Medium (KGM) (Clonetics, Inc., Walkersville, Md.). KGM contains the same basal medium as KBM, but is further supplemented with a mixture of growth factors including 0.1 ng/mL EGF, 0.5 μg/mL insulin, and 2% bovine pituitary extract. In some experiments, the HaCaT line of immortalized human epidermal keratinocytes (Boukamp P, Petrussevska R T, Breitkreutz D, Hornung J, Markham A, Fusenig N E. Normal keratinization in a spontaneously immortalized aneuploid human keratinocyte cell line. J Cell Biol, 1988;106:761-771) was used in place of normal keratinocytes. We (J.V., S.W.S., and J.T.E., unpublished observations) and others (Chaturvedi V, Qin J Z, Denning M F, Choubey D, Diaz M O, Nickoloff B J. Apoptosis in proliferating, senescent, and immortalized keratinocytes. J Biol Chem, 1999;274:23358-23367) have observed that HaCaT cells grow well in KGM. Therefore, HaCaT cells and NHK were propagated in exactly the same manner. Fibroblasts obtained from human skin were grown in monolayer culture using Dulbecco's modified minimal essential medium supplemented with nonessential amino acids and 10% fetal bovine serum (DMEM-FBS). Both keratinocytes and fibroblasts were maintained at 37° C. in an atmosphere of 95% air and 5% CO2. […]

[1] = tested on: organ-cultured human skin; assay: RA-induced epidermal hyperplasia in human skin organ culture; assay type: cell-based
Source text: Immediately upon biopsy, the tissue was immersed in culture medium consisting of Keratinocyte Basal Medium (KBM) (Clonetics, Inc., Walkersville, Md.). KBM is a low-Ca^2+, serum-free modification of MCDB-153 medium optimized for high-density keratinocyte growth (Wille J, Jr., Pittelkow M R, Shipley G D, Scott R E. Integrated control of growth and differentiation of normal human prokeratinocytes cultured in serum-free medium: clonal analyses, growth kinetics, and cell cycle studies. J Cell Physiol 1984;121:31-44). It was supplemented with CaCl2 to bring the final Ca^2+ concentration to 1.4 mM. After transport to the laboratory on ice, the biopsies were incubated in a 96-well dish containing 200 μL of Ca^2+-supplemented KBM with or without additional treatments. Cultures were incubated at 37° C. in an atmosphere of 95% air and 5% CO2. Incubation was for 8 days, with change of medium containing the various treatments every 2 days. […] For the experiment shown in FIG. 4, human skin keratome biopsies were subjected to organ culture in the presence or absence of 3 μM RA followed by RNA isolation and Northern blotting as previously described (Stoll SW, Elder J T. Retinoid regulation of heparin-binding EGF-lke growth factor gene expression in human keratinocytes and skin. Exp Dermatol, 1998;7:391-397), except that the concentration of Ca^2+ was adjusted to 0.1 mM or 1.4 mM by the addition of CaCl2. cDNA insert probes for detection of HB-EGF and 36B4 were prepared and labeled by random priming, as previously described (Stoll and Elder, Supra., 1998).

[2] = tested on: human epidermal keratinocytes; assay: Proliferation assay, keratinocytes in monolayer culture; assay type: cell-based
Experimental: Normal human epidermal keratinocytes were obtained from skin biopsies and maintained in monolayer culture using Keratinocyte Growth Medium (KGM) (Clonetics, Inc., Walkersville, Md.). KGM contains the same basal medium as KBM, but is further supplemented with a mixture of growth factors including 0.1 ng/mL EGF, 0.5 μg/mL insulin, and 2% bovine pituitary extract. In some experiments, the HaCaT line of immortalized human epidermal keratinocytes (Boukamp P, Petrussevska R T, Breitkreutz D, Hornung J, Markham A, Fusenig N E. Normal keratinization in a spontaneously immortalized aneuploid human keratinocyte cell line. J Cell Biol, 1988;106:761-771) was used in place of normal keratinocytes. We (J.V., S.W.S., and J.T.E., unpublished observations) and others (Chaturvedi V, Qin J Z, Denning M F, Choubey D, Diaz M O, Nickoloff B J. Apoptosis in proliferating, senescent, and immortalized keratinocytes. J Biol Chem, 1999;274:23358-23367) have observed that HaCaT cells grow well in KGM. Therefore, HaCaT cells and NHK were propagated in exactly the same manner. Fibroblasts obtained from human skin were grown in monolayer culture using Dulbecco's modified minimal essential medium supplemented with nonessential amino acids and 10% fetal bovine serum (DMEM-FBS). Both keratinocytes and fibroblasts were maintained at 37° C. in an atmosphere of 95% air and 5% CO2. Cells were sub-cultured by exposure to trypsin/EDTA and used at passage 2-3.
For proliferation assays, cells were initially plated at 4×10^4 cells per well of a 24-well dish in growth medium (KGM for keratinocytes or DMEM-FBS for fibroblasts). After allowing cells to attach for 1 to 2 hours, the medium was removed and the cells washed twice in KBM (keratinocytes) or Ca^2+-supplemented KBM (fibroblasts). The cells were then incubated for 48 hours with or without additional reagents as indicated in Results. At the end of the incubation period, the cells were harvested by trypsinization and enumerated using an automated particle counter (Coulter Electronics, Hialeah, Fla.).

[3] = tested on: human epidermal keratinocytes; assay: 51Cr-release cytotoxicity assay; assay type: cell-based; conditions: for pIC50: read-out: Cytotoxicity (ID50)
Experimental: (§1) A ^51Cr-release assay was used to measure cytotoxic effects of the irreversible c-erbB-RTK antagonist. For this assay, keratinocytes were initially plated at 2×10^4 cells per well of a 24-well dish in growth medium (KGM) and treated with 1 μCi per well of ^51Cr. After allowing cells to incorporate ^51Cr for one day, the non-incorporated isotope was removed and the cells washed twice in KBM. The cells were then incubated for 18 hours with or without treatments as indicated in Results. At the end of the incubation period, the percentage of Incorporated ^51Cr that was released into the culture medium was determined.

[4] = 51Cr-release cytotoxicity assay; assay type: cell-based, human; conditions: human, human epidermal keratinocytes; KBM + Ca2+; read-out: Cytotoxicity (ID50)
Experimental: as §1

[5] = tested on: tyrosine kinases residing outside the c-erbB family; conditions: 1 μM; cited from earlier work
[6] = 0.1, 0.5 and 1 mg/kg/day; cited from earlier work
[7] = examined at 1 μM, 5 μM and 10 μM

SMILES: CC1=C(/C=C/C(C)=C/C=C/C(C)=C/C(=O)O)C(C)(C)CCC1 [RA, all-trans retinoic acid, reference compound]
- HB-EGF mRNA induction (HB-EGF mRNA; 1.4 mM Ca2+): clearly dominant over the inhibitory effect of 1.4 mM Ca^2+
- HB-EGF mRNA induction (HB-EGF mRNA; low-Ca2+ (0.1 mM)): strongly potentiated
- fibroblast survival (human dermal fibroblasts): markedly and significantly promoted fibroblast survival
- number of Ki-67-positive cells ([1]; 3 μM RA, 8 days): much larger number of Ki-67-positive cells than did the controls
- epidermal thickness (number of epidermal keratinocytes) ([1]; 3 μM RA, 8 days, 1.4 mM Ca2+): The epidermis was thickened
- preservation of epithelial viability ([1]; RA added to low-Ca2+ organ cultures): up to 12 days

SMILES: C=CC(=O)Nc1cc2c(Nc3cccc(Br)c3)ncnc2cc1OCCCN1CCOCC1 [PD 169540, N-[4-(3-bromo-phenylamino)-7-(3-morpholin-4-yl-propoxy)-quinazolin-6-yl]-acrylamide]
- Inhibition of Growth (ID50) ([2]; +EGF): 6 nM
- Inhibition of Growth (ID50) ([2]; +insulin/pituitary extract): 900 nM
- Inhibition of Growth (ID50) ([2]; KBM + Ca2+): 8 nM
- relative potency, organ culture hyperplasia and monolayer proliferation ([2]; comparison of the two c-erbB-RTK antagonists): clearly the more potent compound in both assays
- reversal of RA-induced epidermal hyperplasia ([1]; 0.5 μM and 0.1 μM inhibitor, 3 μM RA): also effective, albeit less so than 1 μM
- reversal of RA-induced epidermal hyperplasia ([1]; 1 μM inhibitor, 3 μM RA): reversed the effects of 3 μM RA
- RA-stimulated epidermal thickness by keratinocyte counts (keratinocytes/block) ([1]; RA + inhibitor, FIG. 2): reduction in hyperplasia
- reversal of RA-induced epidermal hyperplasia ([1]; concentrations lower than 0.1 μM): no effect
- pIC50 ([3]; +EGF): < 6.00
- pIC50 ([3]; +insulin/pituitary extract): < 6.00
- cytotoxicity by 51Cr release ([3]; any of the concentrations tested): virtually no cytotoxicity
- IC50 at 18 h [4]: > 1000 nM
- effect on tyrosine kinases residing outside the c-erbB family [5]: without effect

SMILES: CNc1cc2c(Nc3cccc(Br)c3)ncnc2cn1 [PD 158780, N^4-(3-Bromo-phenyl)-N^6-methyl-pyrido[3,4-d]pyrimidine-4,6-diamine]
- antiproliferative activity [1, 7]: detected only at 5 and 10 μM
- effects on RA-stimulated hyperplasia [1, 7]: reversed the effects of RA

SMILES: CC1=C(/C=C/C(C)=C/C=C/C(C)=C\C(=O)O)C(C)(C)CCC1 [Accutane, 13-cis-retinoic acid]
- clearing of disease [6]: all dosages provided initial clearing of disease

Reference: US20040198752A1, “Method for inhibiting retinoid skin damage” (priority 2001, published 2004)
